Like-named read-outs stand apart in the source and are kept apart here.
Key:
[1] = test system: MPI cells; experiment: LPS-induced cytokine production by alveolar macrophage MPI cells (ELISA); type: cell-based, C57BL/6J mouse; details: clofoctol added 30 minutes prior to LPS 10 ng/ml, 24 h, supernatant ELISA
Procedure: FIG. 3: Effects of clofoctol treatment on LPS-induced cytokine production by alveolar macrophages. ELISA of IL-1β, IL-12p40, TNFα, and MCP-1 from supernatant of MPI cells pre-treated or not with clofoctol and stimulated or not with LPS during 24 h. The percentage cell viability post treatment is indicated. Significant differences were determined using the two-way ANOVA corrected for Dunnett's multiple comparisons test (viability test) or one-way ANOVA corrected for Dunnett's multiple comparisons test (n=7-11) (**p<0.01; ***p<0.001, ****p<0.0001).
Max Plank Institute (MPI) cells are self-renewing and non-transformed cells originated from fetal liver of C57BL/6J mouse. MPI cells were used as a model of alveolar macrophages, due to their closer profile (Fejer et al., 2013). Cells were cultivated in RPMI Glutamax with 10% FBS, 1% Penicillin/streptomycin, and 30 ng/mL GM-CSF and incubated on 37° ° C.5% CO2. MPI cells were used from passage 6 until passage 30 and they were negative for mycoplasma contamination, which was assessed with MycoAlert™ Mycoplasma Detection Kit (Lonza-Basel, Switzerland). […] Cytokine production was measured from the supernatant of cells after 24 h of stimulation, accordingly to protocol's manufactures for IL-1β, IL-12p40, TNF-α, and MCP-1 (R&D Systems—Minneapolis, MN). […]

[2] = test system: IAV H1N1 A/California/04/2009 (pdm09); experiment: IAV infection in mice: viral load, lung inflammation, pathology; type: in vivo, C57BL/6J mice; details: 50 mg/kg i.p.
[3] = test system: SARS-COV-2; type: in vivo, K18-hACE2 transgenic C57BL/6J mice
[4] = test system: IAV H1N1 A/California/04/2009 (pdm09); experiment: Long-term sequela (fibrosis) imposed by IAV infection in mice; details: 50 mg/kg i.p. once a day for 4 days
[5] = test system: PMA-differentiated THP-1 macrophages; experiment: LPS-induced cytokine expression in PMA-differentiated THP-1 macrophages (RT-qPCR and ELISA); type: cell-based, human; details: clofoctol 1 hour prior to LPS 100 ng/mL
Procedure: FIG. 4: Effects of clofoctol treatment on LPS-induced cytokine mRNA expression by PMA-differentiated THP-1 macrophages. a, b, c and d) mRNA expression of MCP1, TNFα, IL-6 and IL-1β were quantified by RT-qPCR. Data are expressed as a fold-increase over the mean gene expression level in solvent control wells. (mean+/−SD from 3 experiments in duplicate). Significant differences were determined using the one-way ANOVA corrected for Dunnett's multiple comparisons test (**p<0.01; ***p<0.001, ****p<0.0001). ELISA of MCP1, TNFα and IL-6 (e, f and g) from supernatant of THP-1 cells pre-treated or not with Clofoctol or Dexamethasone and stimulated with LPS during 24 h. Results are expressed as the concentration of cytokine in pg/mL. (mean from one experiment in duplicate).
THP-1 designates a spontaneously immortalized monocyte-like cell line, derived from the peripheral blood of a childhood case of acute monocytic leukemia. Cells were cultivated in RPMI with HEPES without Glutamine complemented with 2 mM Glutamine, 10% FBS and 1% Penicillin/streptomycin and incubated at 37° C.-5% CO2. THP1 cells were used from passage 7 until passage 14 and they were negative for mycoplasma contamination, which was assessed with MycoAlert™ Mycoplasma Detection Kit (Lonza-Basel, Switzerland). […] In THP1, The levels of human cytokines were measured after 24 h of stimulation in the collected supernatants with human CCL2/MCP-1, IL-6 and TNF-α Duoset ELISA (R&D systems, Minneapolis, MN) according to the manufacturer's protocols.
Total RNA was extracted with NucleoSpin® RNA kit (Macherey-Nagel, Hoerdt, Germany). […] Relative quantification of MCP1, TNF-α, IL-6 and IL-1β was performed using the gene coding glyceraldehyde 3-phosphate dehydrogenase (GAPDH). Relative mRNA levels (2-ΔΔCt) were determined by comparing (a) the PCR cycle thresholds (Ct) for the gene of interest and the house keeping gene GAPDH (ΔCt) and (b) ΔCt values for treated and control groups (ΔΔCt). Data are expressed as a fold-increase over the mean gene expression level in solvent control wells.

[6] = test system: LPS-induced lung inflammation; experiment: LPS-induced lung inflammation in mice (RT-qPCR of lung transcripts); type: in vivo, C57BL/6J mice; details: male mice, 50 mg/kg i.p. 1 h before and 8 h after i.n. LPS 10 μg/mouse, 24 h
Procedure: FIG. 5: Effects of clofoctol treatment on LPS-induced lung inflammation. Male C57BL/6J mice were treated i.p. with clofoctol (50 mg/kg) or vehicle 1 h before and 8 h after i.n. inoculation of LPS (10 μg/mouse) or PBS. Animals were sacrificed 24 h after LPS inoculation. mRNA copy numbers of genes were quantified by RT-qPCR. Data are expressed as fold change over average gene expression in PBS-treated animals. Results are expressed as the mean±SD (n=6). Significant differences were determined using the Mann-Whitney U test (**p<0.01).
C57BL/6 mice were inoculated by the intra-nasal route with LPS (Escherichia coli 0111:B4) at 10 μg/mouse. Clofoctol was injected i.p. 1 h before and 8 h after LPS administration. Mice were sacrificed 24 hrs after LPS inoculation.

[7] = test system: SARS-CoV-2; experiment: In vitro antiviral activity (IC95) of clofoctol; type: cell-based
[8] = female C57BL/6 mice, single i.p. dose 62.5 mg/kg
[9] = female mice, day 4 post-infection

SMILES: CC(C)(C)CC(C)(C)c1ccc(O)c(Cc2ccc(Cl)cc2Cl)c1 [clofoctol, 2-[(2,4-dichlorophenyl)methyl]-4-(2,4,4-trimethylpentan-2-yl)phenol]
- production of inflammatory cytokines IL-1β, IL-12p40 and TNF-α [1]: inhibited, in a dose dependent manner
- clofoctol concentration in the lungs (62.5 mg/kg i.p. twice daily during two days, 1 h after the fourth administration): 67 µM
- plasma concentration relative to lung concentration [8]: seven times lower
- time lung concentration remained above this level (61 μM) [8]: ~4 h
- clofoctol concentration in the lungs (female C57BL/6 mice, single i.p. dose 62.5 mg/kg, 30 min after injection): up to 61 μM
- IL-6 and IL-12p40 production in lungs ([2]; ELISA, 4 dpi): Reduced
- transcript expression of interferon-stimulated genes Mx1, ISG15 and Cxcl10 ([2]; RT-qPCR): reduced
- viral RNA yields by RT-qPCR ([2]; day 2 and 4 post-infection): trend in reduced viral load
- infectious viral load in the lungs ([2]; day 2 and day 4 post-infection, titration on MDCK cells): slightly reduced
- expression of transcript encoding TNFα in lungs ([2]; day 2 post-infection, RT-qPCR): to a lower extent
- expression of transcripts encoding IL-6, IL-12p40, Ccl2, IFN-γ in lungs ([2]; day 2 post-infection, RT-qPCR): reduced
- lung pathology (histology, inflammation scoring) ([2]; day 4 post-infection, hematoxylin and eosin): only a minimal interstitial inflammation
- viral load by RT-qPCR ([3]; female mice treated during the first 2 days, day 4 post-inoculation): decrease in viral load
- viral RNA yields in lungs by RT-qPCR ([3]; female mice, 62.5 mg/kg i.p., day 2 post-infection): reduced viral load
- expression of transcripts encoding IL-6, TNFα, IL12p40, IFNβ, IFNγ and ISG Mx1, Ifi44, ISG15 in lungs ([3]; female mice, 62.5 mg/kg i.p., day 2 post-infection, RT-qPCR): markedly reduced
- reduction of infectious viral load in the lungs vs vehicle ([3]; female mice, 62.5 mg/kg i.p., day 2 post-infection, titration on Vero-81 cells): more than 1.1 log10
- expression of transcripts encoding inflammatory markers [3, 9]: strongly decreased
- lung pathology (histology) [3, 9]: only a minimal interstitial inflammation
- inflammatory score of lung sections ([3]; female mice, day 4 post-infection, blinded scoring): reduces the inflammatory score
- infection-induced drop of Ocln and ZO1 transcript levels (epithelial barrier markers) ([3]; female mice, day 4 post-infection, lungs): significantly reduced
- lung fibrosis (Red Sirius staining) ([4]; 28 days post-infection): tended to develop less fibrosis
- body weight ([4]; IAV-infected mice): reduces body weight
- expression of MCP1 and IL-6 genes ([5]; 5 hours, RT-qPCR): significantly reducing
- MCP1 and IL-6 protein in supernatant ([5]; 24 hours, ELISA): significantly reducing
- IL1-β and TNF-α expression/production ([5]; RT-qPCR (5 hours) and TNFα ELISA (24 hours)): not significantly modulating
- expression of transcripts encoding IL-6, TNFα, IL-1β, IFN-γ, IL12p40 and CCL2 in lungs [6]: markedly reduced
- IC95 measured in vitro [7]: ~10 µM
